The text below walks through data of patent publication US4560557A, “Silicon and sulfur steroids as irreversible inhibitors of hormone biosynthesis” (University Patents, Inc., priority 1983, dated 1985).

One data set relates to rat adrenocortical cells. As to the kind of experiment: Effects of cholesterol analogues on adrenal cell corticosterone production (with or without ACTH). Type of data set: cell-based. An excerpt:
When rat adrenocortical cells were stimulated with ACTH in the presence of the P-450 scc inhibitors of the present invention, and the production of cortiscoterone measured, less corticosterone was produced in the presence of the compounds of the present invention, then when those compounds were absent.
Corticosterone production rates by non-stimulated rat adrenal cell suspensions are approximately one-fifth those of ACTH stimulated rates. […] This property, combined with P-450 scc inhibitors with and without polar side chains was used to determine how ACTH stimulation results in increased conversion of endogenous cholesterol to corticosterone.
Cells (30,000/ml) were preincubated with steroid for 10 minutes.
Maximally stimulating levels of ACTH were then added and the
incubation continued for another 60 minutes. The incubations were
then quenched, and samples assayed for
corticosterone fluorometrically.

Another data set concerns human adrenal cells. Nature of the data set: ACTH-stimulated cortisol production by human adrenal cell suspensions. Type of data set: cell-based. As to conditions: for time dependence of inhibition of cortisol production: FIG. 4, FIG. 5; for inhibition of ACTH-stimulated cortisol production: human cells. The source says:
(§1) Additionally data showing that the silicon and sulfur-containing compounds of the present invention are effective at halting steroid hormone biosynthesis when given at low concentrations to suspensions of human and rat adrenal cells are depicted in the following figures and table.

For the next data set, the system named is rat adrenal cells. Nature of the data set: Time and concentration dependence of effects on ACTH-stimulated corticosterone production by rat adrenal cells. As to conditions: for time dependence of inhibition of corticosterone production: FIG. 2, FIG. 3; for inhibition of ACTH-stimulated corticosterone production: rat cells. Type of data set: cell-based. As for the experimental part: as §1
Steroid was added at […]. […] At 10 μM 20 OH TMS steroid, corticosterone production is obliterated by 40 min.
Steroid was added at t=-10 min.

The subject of data set [1] is cytochrome P-450 cholesterol side chain cleavage enzyme (P-450scc). Nature of the data set: P-450scc inactivation, preincubation study (pregnenolone formation from [3H]cholesterol). The following applies: NADPH and/or O2, FIG. 1: P450 1.35 μM, steroid 20 μM. Format: biochemical. The method, then:
As mentioned previously, the compounds of the present invention are potent inhibitors of the conversion of cholesterol to pregnenolone.
The final turnover mixture contained 2.5 μM adrenodoxin, 150 nM adrenodoxin reductase, 50 mM K^+ MOPS (pH 7.2), 10 mM MgCl2, 0.2% Tween 20, 1 unit/mL catalase, a NADPH-generating system of 16 μM NADPH, 3 mM G6P, and 1 unit/mL […]. For a typical preincubation experiment, inhibitor was added as an ethanol solution (2-10 mM) into the P-450 turnover mixture at 37° C. and the reactions were started by addition of NADPH stock solution. After, 0, 5, 10, 15, 30, or 45 min. of incubation, an aliquot of this mixture (200μ) was introduced into 1.8 ml of the turnover mixture containing [1, 2-^3 H] cholesterol (100 μM 10,000 dpm/nmol). After 10 min., the reaction was terminated by acidification, and [4-^- C] prengenolone were added as an internal standard. The resulting mixture was extracted using ethyl acetate and evaporated to dryness. The product pregnenolone was separated on silica gel TLC plates (Baker-flex) using 1:1 ethyl acetate-hexane as the solvent. The product formation was determined from the ratio of ^3 H to ^14 C in the recovered pregnenolone.
The P450 concentration was 1.35 μM and the steroid was 20 μM=NADPH; 0=no inhibitor+NADPH; 0=NADPH.

The mark [2] stands for this setting: ACTH + steroid 2 ug/ml, ACTH only = 100, 10 min preincubation, 60 min incubation.
The mark [3] stands for this setting: FIG. 5, 10 μM for the 20(S) compound.

As for `CC(C)CCS[C@@H](C)[C@H]1CC[C@H]2[C@@H]3CC=C4C[C@@H](O)CC[C@]4(C)[C@H]3CC[C@]12C` [20(S)22 thiacholesterol], the “CORTICOSTERONE PRODUCED (%)” value with rat adrenocortical cells (25 hydroxycholesterol 5 ug/ml + 20(S)22 thialcholesterol 5 ug/ml, without ACTH, ACTH only = 100, 60 min) is given as 15.5%. Also, the “CORTICOSTERONE PRODUCED (%)” value in the data set with rat adrenocortical cells (setting [2]) was 54.1%. For the same compound, in the data set with rat adrenocortical cells (ACTH-stimulated cells), the “corticosterone production (in words)” value is given as “decreased corticosterone production”. Moreover, in the data set with human adrenal cells, the “time dependence of inhibition of cortisol production” value is listed as “probably in a time dependent manner” and the “inhibition of ACTH-stimulated cortisol production” value was “inhibits”. Besides, in the data set with human adrenal cells (setting [3]), the “inhibition of cortisol production” value is recorded as “strongly inhibited”. Besides, in the data set on rat adrenal cells, the “time dependence of inhibition of corticosterone production” value is on record as “only slightly time dependent” and the “inhibition of ACTH-stimulated corticosterone production” value is “inhibits”. Also, the “concentration dependence of inhibition of corticosterone production” value with rat adrenal cells (FIG. 3) is “strongly concentration dependent”.
As to `CC(C)CCS[C@H](C)[C@H]1CC[C@H]2[C@@H]3CC=C4C[C@@H](O)CC[C@]4(C)[C@H]3CC[C@]12C` [20(R)22 thiacholesterol], the “CORTICOSTERONE PRODUCED (%)” value in the data set with rat adrenocortical cells (setting [2]) was 117.9%. Moreover, the “time dependence of inhibition of cortisol production” value with human adrenal cells is on record as “not time dependent”. Besides, the “inhibition of cortisol production” value in the data set with human adrenal cells (setting [3]) is listed as “inhibited slightly”.
Regarding `C[C@H](CCCC(C)(C)O)[C@H]1CC[C@H]2[C@@H]3CC=C4C[C@@H](O)CC[C@]4(C)[C@H]3CC[C@]12C` [25 hydroxycholesterol, reference compound], in the data set with rat adrenocortical cells (setting [2]), the “CORTICOSTERONE PRODUCED (%)” value is 117.0%. Moreover, the activity at 2 µg/mL in the data set on rat adrenocortical cells (Rattus norvegicus, 1 h, steroid 2 ug/ml without ACTH, ACTH only = 100, read-out: CORTICOSTERONE PRODUCED (%)) was found to be 21.9%. Also, the activity at 5 µg/mL in the data set on rat adrenocortical cells (Rattus norvegicus, 1 h, steroid 5 ug/ml without ACTH, ACTH only = 100, read-out: CORTICOSTERONE PRODUCED (%)) was found to be 30.4%. For the same compound, the “corticosterone production rate relative to ACTH stimulated cells” value in the data set on rat adrenocortical cells (non-stimulated cells) was “as much as one-half those of ACTH stimulated cells”.
With 22 (trimethylisilyl pregnenol), the “inhibition of cortisol production” value in the data set on human adrenal cells (FIG. 4) was “little inhibitory effect on cortisol production”.
With `C[C@]12CC[C@H]3[C@@H](CC=C4C[C@@H](O)CC[C@@]43C)[C@@H]1CC[C@@H]2[C@@](C)(O)CC[Si](C)(C)C` [20 OH TMS, 20-(2-Trimethylsilyl-ethyl) pregnen-3, 20a-diol], in data set [1], the “loss of enzyme activity / P-450 scc inhibition” value is recorded as “P-450 scc inhibition”. Besides, the “loss of enzyme activity / P-450 scc inhibition” value in data set [1] (listed as trimethyl silyl-containing compound) was “time-dependent loss of enzyme activity”. In addition, in the data set with human adrenal cells (FIG. 4), the “inhibition of cortisol production” value is recorded as “strongly inhibits cortisol production”. For the same compound, in the data set with human adrenal cells, the “time dependence of inhibition of cortisol production” value is listed as “probably in a time dependent manner” and the “inhibition of ACTH-stimulated cortisol production” value is recorded as “inhibits”. In addition, the corticosterone production entry in the data set with rat adrenal cells (10 μM steroid, by 40 min (FIG. 2)) is “obliterated”. For the same compound, in the data set on rat adrenal cells, the “time dependence of inhibition of corticosterone production” value was “strongly time dependent” and the “inhibition of ACTH-stimulated corticosterone production” value is on record as “inhibits”.
